Values quoted from earlier work, collected in patent US7947714B2, “Piperidine glycine transporter inhibitors” (Merck, Sharp & Dohme Corp., priority 2005, dated 2011).

What was measured:
[1] = high doses, oral, add-on to standard neuroleptic therapy
[2] = patients suffering from schizophrenia, poorly responsive to antipsychotic drugs
[3] = test system: NMDA receptor; conditions: rat; blockade of GlyT1
[4] = mice

NCC(=O)O [glycine]
effect on symptoms of schizophrenia [1]: improvement of the symptoms

CNCC(=O)O [sarcosine]
effect on positive, negative and cognitive symptoms of schizophrenia [2]: beneficial effect was observed on positive, negative and cognitive symptoms

CN(CCC(Oc1ccc(-c2ccccc2)cc1)c1ccc(F)cc1)CC(=O)O (stereo not shown) [NFPS, (N-[3-(4′-fluorophenyl)-3-(4′-phenylphenoxy)propyl])sarcosine]
effect on NMDA receptor activity and NMDA receptor-dependent long-term potentiation [3]: potentiates NMDA receptor activity and NMDA receptor-dependent long-term potentiation | effect on pre-pulse inhibition (measure of sensory gating) [4]: enhance pre-pulse inhibition
